Measured values: PMC9532703, “A novel small molecule RK-019 inhibits FGFR2-amplification gastric cancer cell proliferation and induces apoptosis in vitro and in vivo” (Frontiers in Pharmacology, 2022)

What was measured:
Assay in all cases: Kinase selectivity panel
Type in all cases: biochemical
Conditions in all cases: read-out: Inhibition(%) @ 1 µM RK-019
ALK(h) = molecular target: T1, ALK(h) (Homo sapiens, UniProt Q9UM73)
T1 construct: purchased Eurofins Discovery Services (KinaseProfiler)
Experimental: (§1) Median-inhibitory concentration (IC50) and inhibition ratio of kinases by RK-019 was assessed by Eurofins Discovery Services (Dundee, United Kingdom) using the ATP-site competition binding assay in vitro. Firstly, gradient concentration of RK-019 against FGFRs, including FGFR1, FGFR2, FGFR3, and FGFR4, were tested. IC50 value was calculate by the GraphPad Prism software (v8.4.3, GraphPad Software, California, United States). Then, to measure the selectivity prolife of RK-019, a panel of 422 recombinant human kinases was screened at a concentration of 1 µM RK-019. Kinase MAP was drawn by webtools from Cell Signaling Technology, Inc. (www.cellsignal.com).

JAK1(h) = molecular target: T2, JAK1(h) (Homo sapiens, UniProt P23458)
T2 construct: purchased Eurofins Discovery Services (KinaseProfiler)
T2 sequence (P23458 whole entry): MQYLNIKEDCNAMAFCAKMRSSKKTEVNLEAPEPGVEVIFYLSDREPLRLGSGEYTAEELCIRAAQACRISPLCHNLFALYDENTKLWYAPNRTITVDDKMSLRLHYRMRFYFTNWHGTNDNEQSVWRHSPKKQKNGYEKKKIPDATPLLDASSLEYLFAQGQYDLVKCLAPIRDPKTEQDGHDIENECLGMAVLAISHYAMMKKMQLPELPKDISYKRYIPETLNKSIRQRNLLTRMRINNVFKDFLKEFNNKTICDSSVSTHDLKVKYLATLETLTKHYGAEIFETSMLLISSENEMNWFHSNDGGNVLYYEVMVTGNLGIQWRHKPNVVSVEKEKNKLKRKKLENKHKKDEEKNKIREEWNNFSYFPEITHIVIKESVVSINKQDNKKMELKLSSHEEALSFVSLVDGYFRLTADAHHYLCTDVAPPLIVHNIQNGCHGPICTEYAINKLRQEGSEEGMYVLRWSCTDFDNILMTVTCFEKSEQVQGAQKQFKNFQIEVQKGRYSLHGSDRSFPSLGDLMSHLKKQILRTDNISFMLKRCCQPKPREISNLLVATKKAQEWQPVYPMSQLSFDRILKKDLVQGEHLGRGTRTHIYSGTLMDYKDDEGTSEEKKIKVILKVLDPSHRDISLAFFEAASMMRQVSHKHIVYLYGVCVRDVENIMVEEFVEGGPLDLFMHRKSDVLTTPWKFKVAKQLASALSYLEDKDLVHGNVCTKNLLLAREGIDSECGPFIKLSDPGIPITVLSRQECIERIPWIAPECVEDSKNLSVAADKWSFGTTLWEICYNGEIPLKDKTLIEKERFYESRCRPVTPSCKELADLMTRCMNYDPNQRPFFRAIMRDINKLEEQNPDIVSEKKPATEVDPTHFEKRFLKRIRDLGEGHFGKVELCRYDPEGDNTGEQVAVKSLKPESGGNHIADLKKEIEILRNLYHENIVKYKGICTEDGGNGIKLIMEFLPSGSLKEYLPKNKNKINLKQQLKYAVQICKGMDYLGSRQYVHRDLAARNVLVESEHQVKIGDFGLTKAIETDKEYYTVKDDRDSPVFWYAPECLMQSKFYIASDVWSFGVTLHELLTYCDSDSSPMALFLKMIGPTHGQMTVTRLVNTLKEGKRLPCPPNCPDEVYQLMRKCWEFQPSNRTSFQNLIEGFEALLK
Experimental: as §1

PIP4K2a(h) = molecular target: T3, PIP4K2a(h) (Homo sapiens, UniProt P48426)
T3 construct: purchased Eurofins Discovery Services (KinaseProfiler)
T3 sequence (P48426 whole entry): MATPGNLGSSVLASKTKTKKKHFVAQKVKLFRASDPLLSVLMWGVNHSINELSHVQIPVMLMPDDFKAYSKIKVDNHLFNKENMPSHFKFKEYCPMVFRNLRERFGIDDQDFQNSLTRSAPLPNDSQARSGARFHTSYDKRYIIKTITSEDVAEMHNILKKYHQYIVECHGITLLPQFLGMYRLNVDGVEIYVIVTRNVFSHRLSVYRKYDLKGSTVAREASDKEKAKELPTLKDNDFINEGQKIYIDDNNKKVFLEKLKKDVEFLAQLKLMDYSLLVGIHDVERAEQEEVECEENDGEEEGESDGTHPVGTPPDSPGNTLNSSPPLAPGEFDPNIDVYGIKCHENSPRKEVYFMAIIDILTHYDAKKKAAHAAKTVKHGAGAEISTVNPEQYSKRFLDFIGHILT
Experimental: as §1

ATM(h) = molecular target: T4, ATM(h) (Homo sapiens, UniProt Q13315)
T4 construct: purchased Eurofins Discovery Services (KinaseProfiler)
Experimental: as §1

IKKε(h) = molecular target: T5, IKKε(h) (Homo sapiens, UniProt Q14164)
T5 construct: purchased Eurofins Discovery Services (KinaseProfiler)
Experimental: as §1

Rsk2(h) = molecular target: T6, Rsk2(h) (Homo sapiens, UniProt P51812)
T6 construct: purchased Eurofins Discovery Services (KinaseProfiler)
T6 sequence (P51812 whole entry): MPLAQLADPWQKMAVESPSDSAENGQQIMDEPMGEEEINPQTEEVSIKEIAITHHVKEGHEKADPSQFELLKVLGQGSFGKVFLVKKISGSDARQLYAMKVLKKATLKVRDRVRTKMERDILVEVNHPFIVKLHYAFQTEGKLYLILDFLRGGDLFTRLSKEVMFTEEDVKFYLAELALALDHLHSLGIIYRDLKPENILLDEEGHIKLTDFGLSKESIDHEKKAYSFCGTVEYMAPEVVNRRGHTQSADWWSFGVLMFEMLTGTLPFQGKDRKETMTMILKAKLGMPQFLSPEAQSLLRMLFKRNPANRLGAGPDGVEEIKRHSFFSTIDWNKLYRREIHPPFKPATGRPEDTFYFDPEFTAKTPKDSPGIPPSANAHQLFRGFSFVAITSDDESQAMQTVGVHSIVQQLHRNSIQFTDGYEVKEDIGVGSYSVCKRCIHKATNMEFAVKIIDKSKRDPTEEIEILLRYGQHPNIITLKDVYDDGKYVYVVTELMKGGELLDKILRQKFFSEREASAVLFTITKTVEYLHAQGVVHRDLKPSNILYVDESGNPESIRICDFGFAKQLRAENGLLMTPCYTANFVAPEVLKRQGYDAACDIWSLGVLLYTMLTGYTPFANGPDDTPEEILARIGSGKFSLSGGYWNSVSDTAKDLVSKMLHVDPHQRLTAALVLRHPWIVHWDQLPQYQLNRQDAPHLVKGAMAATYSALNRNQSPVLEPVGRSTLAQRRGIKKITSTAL
Experimental: as §1

HIPK3(h) = molecular target: T7, HIPK3(h) (Homo sapiens, UniProt Q9H422)
T7 construct: purchased Eurofins Discovery Services (KinaseProfiler)
Experimental: as §1

[1] = molecular target: T8, PI3 Kinase (p110b/p85b)(m) (Mus musculus, UniProt Q8BTI9)
T8 construct: purchased Eurofins Discovery Services (KinaseProfiler)
Experimental: as §1

EGFR(h) = molecular target: T9, EGFR(h) (Homo sapiens, UniProt P00533)
T9 construct: purchased Eurofins Discovery Services (KinaseProfiler)
Experimental: as §1

CDK5/p25(h) = molecular target: T10, CDK5/p25(h) (Homo sapiens, UniProt Q00535)
T10 construct: purchased Eurofins Discovery Services (KinaseProfiler)
T10 sequence (Q00535 whole entry): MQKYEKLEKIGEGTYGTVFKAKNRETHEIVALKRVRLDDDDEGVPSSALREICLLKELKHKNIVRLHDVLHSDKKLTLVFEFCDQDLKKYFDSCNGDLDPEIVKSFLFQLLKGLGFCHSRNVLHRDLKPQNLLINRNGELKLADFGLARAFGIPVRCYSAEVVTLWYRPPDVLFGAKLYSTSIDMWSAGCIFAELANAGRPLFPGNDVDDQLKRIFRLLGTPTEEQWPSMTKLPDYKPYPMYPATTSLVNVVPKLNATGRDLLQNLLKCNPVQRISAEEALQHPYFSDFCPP
T10 sequence (Q15078 99-307 partner limits assumed): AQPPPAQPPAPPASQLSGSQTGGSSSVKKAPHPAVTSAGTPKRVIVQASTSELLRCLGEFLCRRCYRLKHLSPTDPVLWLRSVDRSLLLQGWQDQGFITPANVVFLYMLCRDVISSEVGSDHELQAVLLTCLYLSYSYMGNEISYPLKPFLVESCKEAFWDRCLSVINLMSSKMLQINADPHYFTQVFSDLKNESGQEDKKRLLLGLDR
Experimental: as §1

MKK6(h) = molecular target: T11, MKK6(h) (Homo sapiens, UniProt P52564)
T11 construct: purchased Eurofins Discovery Services (KinaseProfiler)
Experimental: as §1

FAK(h) = molecular target: T12, FAK(h) (Homo sapiens, UniProt Q05397)
T12 construct: purchased Eurofins Discovery Services (KinaseProfiler)
Experimental: as §1

ErbB4(h) = molecular target: T13, ErbB4(h) (Homo sapiens, UniProt Q15303)
T13 construct: purchased Eurofins Discovery Services (KinaseProfiler)
Experimental: as §1

WNK4(h) = molecular target: T14, WNK4(h) (Homo sapiens, UniProt Q96J92)
T14 construct: purchased Eurofins Discovery Services (KinaseProfiler)
Experimental: as §1

PDHK2(h) = molecular target: T15, PDHK2(h) (Homo sapiens, UniProt Q15119)
T15 construct: purchased Eurofins Discovery Services (KinaseProfiler)
Experimental: as §1

JNK2α2(h) = molecular target: T16, JNK2α2(h) (Homo sapiens, UniProt P45984)
T16 construct: purchased Eurofins Discovery Services (KinaseProfiler)
Experimental: as §1

MAPK2(m) = molecular target: T17, MAPK2(m) (Mus musculus, UniProt P63085)
T17 construct: purchased Eurofins Discovery Services (KinaseProfiler)
T17 sequence (P63085 2-358): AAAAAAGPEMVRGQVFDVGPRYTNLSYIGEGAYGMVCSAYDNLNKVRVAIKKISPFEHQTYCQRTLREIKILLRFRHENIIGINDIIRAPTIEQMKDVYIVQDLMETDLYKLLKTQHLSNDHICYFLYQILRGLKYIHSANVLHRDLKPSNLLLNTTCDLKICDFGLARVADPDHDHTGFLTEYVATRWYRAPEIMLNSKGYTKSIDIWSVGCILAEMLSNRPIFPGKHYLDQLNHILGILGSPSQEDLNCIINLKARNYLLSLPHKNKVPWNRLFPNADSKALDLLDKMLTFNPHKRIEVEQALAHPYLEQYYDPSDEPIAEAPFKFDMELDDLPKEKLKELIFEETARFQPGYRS
Experimental: as §1

TYK2(h) = molecular target: T18, TYK2(h) (Homo sapiens, UniProt P29597)
T18 construct: purchased Eurofins Discovery Services (KinaseProfiler)
Experimental: as §1

MYO3B(h) = molecular target: T19, MYO3B(h) (Homo sapiens, UniProt Q8WXR4)
T19 construct: purchased Eurofins Discovery Services (KinaseProfiler)
Experimental: as §1

MARK1(h) = molecular target: T20, MARK1(h) (Homo sapiens, UniProt Q9P0L2)
T20 construct: purchased Eurofins Discovery Services (KinaseProfiler)
Experimental: as §1

Met(Y1248D)(h) = molecular target: T21, Met(Y1248D)(h) (Homo sapiens, UniProt P08581, Y1230D)
T21 construct: purchased Eurofins Discovery Services (KinaseProfiler)
Experimental: as §1

ZIPK(h) = molecular target: T22, ZIPK(h) (Homo sapiens, UniProt O43293)
T22 construct: purchased Eurofins Discovery Services (KinaseProfiler)
Experimental: as §1

MAP4K4(h) = molecular target: T23, MAP4K4(h) (Homo sapiens, UniProt O95819)
T23 construct: purchased Eurofins Discovery Services (KinaseProfiler)
Experimental: as §1

Tie2(R849W)(h) = molecular target: T24, Tie2(R849W)(h) (Homo sapiens, UniProt Q02763, R849W)
T24 construct: purchased Eurofins Discovery Services (KinaseProfiler)
Experimental: as §1

DAPK2(h) = molecular target: T25, DAPK2(h) (Homo sapiens, UniProt Q9UIK4)
T25 construct: purchased Eurofins Discovery Services (KinaseProfiler)
T25 sequence (Q9UIK4 whole entry): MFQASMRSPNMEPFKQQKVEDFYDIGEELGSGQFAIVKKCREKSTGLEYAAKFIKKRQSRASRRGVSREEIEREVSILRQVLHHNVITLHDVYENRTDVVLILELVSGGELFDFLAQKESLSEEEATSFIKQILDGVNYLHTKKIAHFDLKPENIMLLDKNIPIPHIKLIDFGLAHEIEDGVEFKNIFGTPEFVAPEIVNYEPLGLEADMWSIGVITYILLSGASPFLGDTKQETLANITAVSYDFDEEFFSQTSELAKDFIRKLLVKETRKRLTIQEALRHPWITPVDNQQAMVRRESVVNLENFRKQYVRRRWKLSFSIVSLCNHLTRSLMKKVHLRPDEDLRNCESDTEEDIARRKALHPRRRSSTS
Experimental: as §1

DMPK(h) = molecular target: T26, DMPK(h) (Homo sapiens, UniProt Q09013)
T26 construct: purchased Eurofins Discovery Services (KinaseProfiler)
Experimental: as §1

CDK18/cyclinY(h) = molecular target: T27, CDK18/cyclinY(h) (Homo sapiens, UniProt Q07002)
T27 construct: purchased Eurofins Discovery Services (KinaseProfiler)
T27 sequence (Q07002 whole entry): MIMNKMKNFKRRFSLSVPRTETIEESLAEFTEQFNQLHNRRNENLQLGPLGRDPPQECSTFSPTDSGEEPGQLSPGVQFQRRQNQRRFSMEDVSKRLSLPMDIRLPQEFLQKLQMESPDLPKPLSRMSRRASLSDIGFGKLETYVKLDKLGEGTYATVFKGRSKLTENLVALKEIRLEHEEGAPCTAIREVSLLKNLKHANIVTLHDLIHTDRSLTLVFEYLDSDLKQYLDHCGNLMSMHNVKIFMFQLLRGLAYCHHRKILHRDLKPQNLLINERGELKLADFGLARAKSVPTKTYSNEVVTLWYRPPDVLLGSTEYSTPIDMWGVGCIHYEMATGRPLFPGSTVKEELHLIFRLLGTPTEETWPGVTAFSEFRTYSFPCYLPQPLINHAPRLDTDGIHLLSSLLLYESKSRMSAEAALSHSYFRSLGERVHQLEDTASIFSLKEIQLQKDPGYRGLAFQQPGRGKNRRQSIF
T27 sequence (Q8ND76 whole entry partner): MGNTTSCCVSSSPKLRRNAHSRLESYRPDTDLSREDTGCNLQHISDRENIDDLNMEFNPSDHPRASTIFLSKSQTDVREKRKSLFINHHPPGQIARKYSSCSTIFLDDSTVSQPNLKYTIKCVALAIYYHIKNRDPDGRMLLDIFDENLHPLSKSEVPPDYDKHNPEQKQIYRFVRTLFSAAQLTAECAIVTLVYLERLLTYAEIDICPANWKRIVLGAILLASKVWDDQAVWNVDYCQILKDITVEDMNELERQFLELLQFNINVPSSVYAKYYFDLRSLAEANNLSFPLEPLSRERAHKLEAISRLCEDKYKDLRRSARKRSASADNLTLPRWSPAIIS
Experimental: as §1

CSK(h) = molecular target: T28, CSK(h) (Homo sapiens, UniProt P41240)
T28 construct: purchased Eurofins Discovery Services (KinaseProfiler)
Experimental: as §1

IGF-1R(h) = molecular target: T29, IGF-1R(h) (Homo sapiens, UniProt P08069)
T29 construct: purchased Eurofins Discovery Services (KinaseProfiler)
Experimental: as §1

AAK1(h) = molecular target: T30, AAK1(h) (Homo sapiens, UniProt Q2M2I8)
T30 construct: purchased Eurofins Discovery Services (KinaseProfiler)
Experimental: as §1

B-Raf(V599E)(h) = molecular target: T31, B-Raf(V599E)(h) (Homo sapiens, UniProt P15056, V600E)
T31 construct: purchased Eurofins Discovery Services (KinaseProfiler)
Experimental: as §1

Abl(T315I)(h) = molecular target: T32, Abl(T315I)(h) (Homo sapiens, UniProt P00519, T315I)
T32 construct: purchased Eurofins Discovery Services (KinaseProfiler)
Experimental: as §1

CaMKIγ(h) = molecular target: T33, CaMKIγ(h) (Homo sapiens, UniProt Q96NX5)
T33 construct: purchased Eurofins Discovery Services (KinaseProfiler)
Experimental: as §1

Abl (H396P) (h) = molecular target: T34, Abl (H396P) (h) (Homo sapiens, UniProt P00519, H396P)
T34 construct: purchased Eurofins Discovery Services (KinaseProfiler)
Experimental: as §1

Hck(h) activated = molecular target: T35, Hck(h) activated (Homo sapiens, UniProt P08631)
T35 construct: purchased Eurofins Discovery Services (KinaseProfiler)
Experimental: as §1

Itk(h) = molecular target: T36, Itk(h) (Homo sapiens, UniProt Q08881)
T36 construct: purchased Eurofins Discovery Services (KinaseProfiler)
T36 sequence (Q08881 whole entry): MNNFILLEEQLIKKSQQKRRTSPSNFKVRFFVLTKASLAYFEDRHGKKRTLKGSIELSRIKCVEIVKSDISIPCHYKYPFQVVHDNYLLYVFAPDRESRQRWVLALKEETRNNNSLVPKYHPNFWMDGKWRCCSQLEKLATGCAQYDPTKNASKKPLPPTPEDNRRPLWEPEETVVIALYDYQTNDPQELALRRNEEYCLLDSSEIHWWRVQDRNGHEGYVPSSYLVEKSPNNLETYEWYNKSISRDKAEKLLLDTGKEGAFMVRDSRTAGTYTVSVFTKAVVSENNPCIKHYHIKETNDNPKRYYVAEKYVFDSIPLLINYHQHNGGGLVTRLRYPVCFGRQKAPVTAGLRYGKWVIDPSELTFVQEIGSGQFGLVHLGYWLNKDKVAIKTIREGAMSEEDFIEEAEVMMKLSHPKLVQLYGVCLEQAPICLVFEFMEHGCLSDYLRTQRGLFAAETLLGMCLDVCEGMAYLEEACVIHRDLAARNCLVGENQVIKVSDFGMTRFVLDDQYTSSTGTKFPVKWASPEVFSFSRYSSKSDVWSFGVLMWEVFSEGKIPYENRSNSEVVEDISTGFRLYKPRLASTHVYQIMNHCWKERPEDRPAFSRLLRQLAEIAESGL
Experimental: as §1

IRAK4(h) = molecular target: T37, IRAK4(h) (Homo sapiens, UniProt Q9NWZ3)
T37 construct: purchased Eurofins Discovery Services (KinaseProfiler)
Experimental: as §1

COc1cc(OC)cc(N(CCN[C@H](C)CO)c2ccc3ncc(-c4cnn(C)c4)c(=O)n3c2)c1 [RK-019, (R)-7-((3,5-dimethoxyphenyl) (2-((1-hydroxypropan-2-yl)amino)ethyl)amino)-3-(1-methyl-1H-pyrazol-4-yl)-4H-pyrido [1,2-a]pyrimidin-4-one]
activity at 1 µM (ALK(h)): 85%
activity at 1 µM (JAK1(h)): 120%
activity at 1 µM (PIP4K2a(h)): 102%
activity at 1 µM (ATM(h)): 105%
activity at 1 µM (IKKε(h)): 107%
activity at 1 µM (Rsk2(h)): 149%
activity at 1 µM (HIPK3(h)): 94%
activity at 1 µM [1]: 99%
activity at 1 µM (EGFR(h)): 119%
activity at 1 µM (CDK5/p25(h)): 112%
activity at 1 µM (MKK6(h)): 83%
activity at 1 µM (FAK(h)): 105%
activity at 1 µM (ErbB4(h)): 105%
activity at 1 µM (WNK4(h)): 86%
activity at 1 µM (PDHK2(h)): 104%
activity at 1 µM (JNK2α2(h)): 99%
activity at 1 µM (MAPK2(m)): 109%
activity at 1 µM (TYK2(h)): 96%
activity at 1 µM (MYO3B(h)): 106%
activity at 1 µM (MARK1(h)): 93%
activity at 1 µM (Met(Y1248D)(h)): 103%
activity at 1 µM (ZIPK(h)): 96%
activity at 1 µM (MAP4K4(h)): 82%
activity at 1 µM (Tie2(R849W)(h)): 82%
activity at 1 µM (DAPK2(h)): 97%
activity at 1 µM (DMPK(h)): 98%
activity at 1 µM (CDK18/cyclinY(h)): 96%
activity at 1 µM (CSK(h)): 94%
activity at 1 µM (IGF-1R(h)): 104%
activity at 1 µM (AAK1(h)): 91%
activity at 1 µM (B-Raf(V599E)(h)): 70%
activity at 1 µM (Abl(T315I)(h)): 66%
activity at 1 µM (CaMKIγ(h)): 93%
activity at 1 µM (Abl (H396P) (h)): 49%
activity at 1 µM (Hck(h) activated): 60%
activity at 1 µM (Itk(h)): 104%
activity at 1 µM (IRAK4(h)): 100%
